Columns and labels:
Test in all cases: relative viability (nuclei count vs DMSO), 5 days (fraction); higher = more cells survive
[1] = tested on: A-427
In short: (§1)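 The day after seeding in 1536-well plates, lung cancer cell lines were treated by pin tool with a single drug, or with a fixed anchor-drug dose together with five library-drug doses (not always all listed) in √10 steps. After 5 days, a combined fix-and-stain solution (final 0.05% Triton X-100, 1% formaldehyde, 1 ug/ml Hoechst) was added. Nuclei counted on 4× images gave relative viability as treated counts over vehicle counts, reported as the median of duplicate plates.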

[2] = tested on: ABC-1
In short: as §1

[3] = tested on: COR-L23
In short: as §1

[4] = tested on: ChaGo-K-1
In short: as §1

[5] = tested on: HARA
In short: as §1

[6] = tested on: LCLC-97TM1
In short: as §1

[7] = tested on: LK-2
In short: as §1

[8] = tested on: LOU-NH91
In short: as §1

[9] = tested on: LU99A
In short: as §1

[10] = tested on: NCI-H1395
In short: as §1

[11] = tested on: NCI-H1651
In short: as §1

[12] = tested on: NCI-H1734
In short: as §1

[13] = tested on: NCI-H1792
In short: as §1

[14] = tested on: NCI-H1975
In short: as §1

[15] = tested on: NCI-H2023
In short: as §1

[16] = tested on: NCI-H2126
In short: as §1

[17] = tested on: NCI-H2342
In short: as §1

[18] = tested on: NCI-H23
In short: as §1

[19] = tested on: NCI-H2405
In short: as §1

[20] = tested on: NCI-H3122
In short: as §1

[21] = tested on: NCI-H460
In short: as §1

[22] = tested on: NCI-H661
In short: as §1

[23] = tested on: NCI-H838
In short: as §1

[24] = tested on: SK-MES-1
In short: as §1

[25] = tested on: SW 1573
In short: as §1

Molecule `Nc1cccc2c1CN(C1CCC(=O)NC1=O)C2=O` (configuration not stated) [Lenalidomide] + O=C(c1cc(Cc2n[nH]c(=O)c3ccccc23)ccc1F)N1CCN(C(=O)C2CC2)CC1 [Olaparib] (partner 8 µM) has a relative viability ([1]; first compound 0.253 µM) of 0.713, a relative viability ([1]; first compound 0.8 µM) of 0.504 and a relative viability ([1]; first compound 2.53 µM) of 0.838. The relative viability ([1]; first compound 8 µM) was 0.79, the relative viability ([2]; first compound 0.253 µM) was 0.654 and the relative viability ([2]; first compound 0.8 µM) was 0.764. For the same molecule, the relative viability ([2]; first compound 2.53 µM) was 0.861, the relative viability ([2]; first compound 8 µM) was 1.03 and the relative viability ([3]; first compound 0.253 µM) was 0.329. The relative viability ([3]; first compound 0.8 µM) was 0.316, the relative viability ([3]; first compound 2.53 µM) was 0.356 and the relative viability ([3]; first compound 8 µM) was 0.393. The relative viability ([4]; first compound 0.253 µM) was 0.387, the relative viability ([4]; first compound 0.8 µM) was 0.407 and the relative viability ([4]; first compound 2.53 µM) was 0.421. It also gave a relative viability ([4]; first compound 8 µM) of 0.478, a relative viability ([5]; first compound 0.253 µM) of 0.925 and a relative viability ([5]; first compound 2.53 µM) of 0.804. For the same molecule, the relative viability ([5]; first compound 8 µM) was 1.01, the relative viability ([6]; first compound 0.253 µM) was 0.403 and the relative viability ([6]; first compound 0.8 µM) was 0.38. For the same molecule, the relative viability ([6]; first compound 2.53 µM) was 0.433, the relative viability ([6]; first compound 8 µM) was 0.36 and the relative viability ([7]; first compound 0.253 µM) was 0.881. For the same molecule, the relative viability ([7]; first compound 0.8 µM) was 0.413, the relative viability ([7]; first compound 2.53 µM) was 0.571 and the relative viability ([7]; first compound 8 µM) was 0.387. For the same molecule, the relative viability ([8]; first compound 0.253 µM) was 0.934, the relative viability ([8]; first compound 0.8 µM) was 0.948 and the relative viability ([8]; first compound 2.53 µM) was 0.906. The relative viability ([8]; first compound 8 µM) was 0.898, the relative viability ([9]; first compound 0.253 µM) was 0.261 and the relative viability ([9]; first compound 0.8 µM) was 0.283. The relative viability ([9]; first compound 2.53 µM) was 0.243, the relative viability ([9]; first compound 8 µM) was 0.246 and the relative viability ([10]; first compound 0.253 µM) was 0.453. For the same molecule, the relative viability ([10]; first compound 2.53 µM) was 0.523, the relative viability ([10]; first compound 8 µM) was 0.458 and the relative viability ([11]; first compound 0.253 µM) was 0.153. For the same molecule, the relative viability ([11]; first compound 0.8 µM) was 0.169, the relative viability ([11]; first compound 2.53 µM) was 0.219 and the relative viability ([11]; first compound 8 µM) was 0.194. It also gave a relative viability ([12]; first compound 0.253 µM) of 0.305, a relative viability ([12]; first compound 0.8 µM) of 0.582 and a relative viability ([12]; first compound 2.53 µM) of 0.651. It also gave a relative viability ([12]; first compound 8 µM) of 0.576, a relative viability ([13]; first compound 0.253 µM) of 0.609 and a relative viability ([13]; first compound 0.8 µM) of 0.378. For the same molecule, the relative viability ([13]; first compound 2.53 µM) was 0.588, the relative viability ([13]; first compound 8 µM) was 0.485 and the relative viability ([14]; first compound 0.253 µM) was 0.912. For the same molecule, the relative viability ([14]; first compound 0.8 µM) was 0.694, the relative viability ([14]; first compound 2.53 µM) was 0.876 and the relative viability ([14]; first compound 8 µM) was 0.995. It also gave a relative viability ([15]; first compound 0.253 µM) of 0.46, a relative viability ([15]; first compound 0.8 µM) of 0.469 and a relative viability ([15]; first compound 2.53 µM) of 0.492. For the same molecule, the relative viability ([15]; first compound 8 µM) was 0.453, the relative viability ([16]; first compound 0.253 µM) was 0.934 and the relative viability ([16]; first compound 0.8 µM) was 0.857. The relative viability ([16]; first compound 2.53 µM) was 0.983, the relative viability ([16]; first compound 8 µM) was 0.854 and the relative viability ([17]; first compound 0.253 µM) was 0.464. The relative viability ([17]; first compound 0.8 µM) was 0.415, the relative viability ([17]; first compound 2.53 µM) was 0.437 and the relative viability ([17]; first compound 8 µM) was 0.399. It also gave a relative viability ([18]; first compound 0.253 µM) of 0.289, a relative viability ([18]; first compound 2.53 µM) of 0.3 and a relative viability ([18]; first compound 8 µM) of 0.367. For the same molecule, the relative viability ([19]; first compound 0.253 µM) was 0.866, the relative viability ([19]; first compound 0.8 µM) was 0.877 and the relative viability ([19]; first compound 2.53 µM) was 0.879. For the same molecule, the relative viability ([19]; first compound 8 µM) was 0.86, the relative viability ([20]; first compound 0.253 µM) was 0.596 and the relative viability ([20]; first compound 0.8 µM) was 0.579. For the same molecule, the relative viability ([20]; first compound 2.53 µM) was 0.623, the relative viability ([20]; first compound 8 µM) was 0.745 and the relative viability ([21]; first compound 0.253 µM) was 0.394. For the same molecule, the relative viability ([21]; first compound 0.8 µM) was 0.397, the relative viability ([21]; first compound 2.53 µM) was 0.438 and the relative viability ([21]; first compound 8 µM) was 0.374. The relative viability ([22]; first compound 0.253 µM) was 0.725, the relative viability ([22]; first compound 0.8 µM) was 0.756 and the relative viability ([22]; first compound 2.53 µM) was 0.735. For the same molecule, the relative viability ([22]; first compound 8 µM) was 0.704, the relative viability ([23]; first compound 0.253 µM) was 0.75 and the relative viability ([23]; first compound 0.8 µM) was 0.774. For the same molecule, the relative viability ([23]; first compound 2.53 µM) was 0.781, the relative viability ([23]; first compound 8 µM) was 0.79 and the relative viability ([24]; first compound 0.253 µM) was 0.717. The relative viability ([24]; first compound 0.8 µM) was 0.691, the relative viability ([24]; first compound 2.53 µM) was 0.715 and the relative viability ([24]; first compound 8 µM) was 0.806. For the same molecule, the relative viability ([25]; first compound 0.253 µM) was 0.492, the relative viability ([25]; first compound 0.8 µM) was 0.545 and the relative viability ([25]; first compound 2.53 µM) was 0.468. For the same molecule, the relative viability ([25]; first compound 8 µM) was 0.606.

From the supplement of paper PMC10307832
